Series [1] in a line: solubility in water. Type of series: physicochemical.
Series [2] can be described thus: stability in water solution. Type of series: physicochemical. Conditions: decomposition especially at a low pH.
The conditions of series [3]: administered intravenously to a human patient; average; cited from earlier work.

Entries after “also recorded” stand apart in the source; their conditions may differ.

For `CC(C)(C)OC(=O)N1CC2CC(CN(C[C@H](O)COc3ccc(C#N)cc3)C2)C1` [Compound A, 3,7-diazabicyclo[3.3.1]-nonane-3-carboxylic acid, 7-[(2S)-3-(4-cyanophenoxy)-2-hydroxypropyl]-1,1-dimethylethyl ester], the solubility in water entry in series [1] is reported as “poorly soluble in water; also recorded: low water solubility”. The “stability in water solutions” value in series [2] is “unstable in water solutions; also recorded: decomposition in water solution”.

Take `CCCCCCCN(CC)CCCC(O)c1ccc(NS(C)(=O)=O)cc1` (stereo not drawn) [ibutilide]: in series [3], the half-life of elimination entry is recorded as “around 6 hours”.
